Measured values from patent US6358990B1, “Method for treating Alzheimer's disease” (Boehringer Mannheim Pharmaceuticals Corp., priority 1997, dated 2002).

Tested on: IMR32 human neuroblastoma cells
Assay: Inhibition of the formation of toxic aggregates of beta-amyloid 1-40 peptide (MTT reduction in IMR32 cells)
Format: cell-based
Experimental: Determination of the Inhibition of the Formation of Toxic Aggregates of Beta-Amyloid 1-40 Peptide
Beta-amyloid (1-40) peptide from Bachem UK was dissolved in 0.1% acetic acid at 2 mg/ml and further diluted to 55 ug/ml in phosphate buffered saline (Sigma P4417) containing 0.02% Tween 20 (PBS-Tween). Candidate inhibitors were dissolved in DMSO at 10 mg/ml and further diluted in PBS-Tween. For each candidate inhibitor, 45 ul of 55 ug/ml peptide solution was incubated with 5 ul of appropriately diluted inhibitor overnight at 37° C. in Linbro Titertek EIA II shallow well plates (ICN, EIA II Microplates, cat no. 76-181-04). Plates were sealed with Dynatech Labs (cat # 001-010 3501) plate sealers.
MTT (3(4,5-dimethylthiazol-2-yl)-2,5-diphenyl tetrazolium bromide—Sigma) is a metabolic dye taken up by the mitochondria of viable cells and metabolised, yielding a blue formazan crystalline product. […]
For the assessment of toxicity, IMR32 human neuroblastoma cells (ECACC, Porton Down, UK) were plated at 6×10^4 cells/cm^2 in a 96 well microtitre plate (Nunc) in a volume of 100 ul growth medium (DMEM:Hams F12 1:1) per well and incubated for 2 h (CO2 incubator, 37° C.). […] Plates were read at 590 nm and inhibition of toxicity assessed as the difference in OD reading between cells in the presence and absence of candidate inhibitors. […]

## COc1ccccc1OCCNCC(O)COc1cccc2[nH]c3ccccc3c12 (centres unmarked) [carvedilol]
50 ug/ml beta-amyloid 1-40 incubated overnight with 50 ug/ml carvedilol, cells challenged with 0 to 10 ng/ml beta-amyloid 1-40
  shift of the beta-amyloid 1-40 concentration-response curve (decrease in MTT reduction): marked shift to the right
50 ug/ml carvedilol during the aggregation step, 0.1 to 1 ng/ml of peptide on IMR32 cells
  decrease in MTT reduction: no decrease in MTT reduction was observed
